According to PMC10782225 (The FASEB Journal, 2023):
Like-named read-outs stand apart in the source and are kept apart here.

How the values were obtained:
human α7β2‐nAChR = molecular target: T1, human α7β2‐nAChR (Homo sapiens, UniProt P17787+P36544); experiment: cell-based
T1 construct: expressed in transfected cells; host or cells: Xenopus laevis oocytes, cRNA injection

α6/3β2β3‐nAChR = molecular target: T2, α6/3β2β3‐nAChR (Homo sapiens, UniProt P17787+P32297+Q05901+Q15825); format: cell-based
T2 construct: expressed in transfected cells; host or cells: Xenopus laevis oocytes, cRNA injection
T2 sequence (P17787 26-502): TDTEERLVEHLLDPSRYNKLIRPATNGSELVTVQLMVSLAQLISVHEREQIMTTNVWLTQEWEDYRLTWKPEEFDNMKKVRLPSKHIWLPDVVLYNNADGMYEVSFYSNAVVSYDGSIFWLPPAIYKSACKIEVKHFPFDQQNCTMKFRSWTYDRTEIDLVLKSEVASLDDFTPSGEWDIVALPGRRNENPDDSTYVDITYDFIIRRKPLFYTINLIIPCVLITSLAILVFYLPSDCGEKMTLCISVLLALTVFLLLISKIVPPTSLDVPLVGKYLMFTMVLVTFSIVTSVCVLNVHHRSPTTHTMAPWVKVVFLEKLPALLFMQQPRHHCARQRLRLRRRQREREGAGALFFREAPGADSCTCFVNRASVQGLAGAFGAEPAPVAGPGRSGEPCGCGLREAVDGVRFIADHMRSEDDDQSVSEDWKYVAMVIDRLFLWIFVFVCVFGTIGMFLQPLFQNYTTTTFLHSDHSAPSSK
T2 sequence (Q15825+P32297 fused with the stated changes): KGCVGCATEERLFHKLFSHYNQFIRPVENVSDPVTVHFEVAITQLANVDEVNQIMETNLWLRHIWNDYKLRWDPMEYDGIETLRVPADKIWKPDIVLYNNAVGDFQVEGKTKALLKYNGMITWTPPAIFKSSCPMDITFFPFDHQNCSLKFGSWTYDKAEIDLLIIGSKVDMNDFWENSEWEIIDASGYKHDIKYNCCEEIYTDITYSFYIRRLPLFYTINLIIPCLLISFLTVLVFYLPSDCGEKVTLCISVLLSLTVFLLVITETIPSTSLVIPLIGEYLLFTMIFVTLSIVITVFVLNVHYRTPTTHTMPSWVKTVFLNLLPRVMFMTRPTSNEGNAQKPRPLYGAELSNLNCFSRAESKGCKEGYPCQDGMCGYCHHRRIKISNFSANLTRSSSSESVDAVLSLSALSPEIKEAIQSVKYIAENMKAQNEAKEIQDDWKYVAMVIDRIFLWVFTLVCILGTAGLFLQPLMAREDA
T2 sequence (Q05901 25-458): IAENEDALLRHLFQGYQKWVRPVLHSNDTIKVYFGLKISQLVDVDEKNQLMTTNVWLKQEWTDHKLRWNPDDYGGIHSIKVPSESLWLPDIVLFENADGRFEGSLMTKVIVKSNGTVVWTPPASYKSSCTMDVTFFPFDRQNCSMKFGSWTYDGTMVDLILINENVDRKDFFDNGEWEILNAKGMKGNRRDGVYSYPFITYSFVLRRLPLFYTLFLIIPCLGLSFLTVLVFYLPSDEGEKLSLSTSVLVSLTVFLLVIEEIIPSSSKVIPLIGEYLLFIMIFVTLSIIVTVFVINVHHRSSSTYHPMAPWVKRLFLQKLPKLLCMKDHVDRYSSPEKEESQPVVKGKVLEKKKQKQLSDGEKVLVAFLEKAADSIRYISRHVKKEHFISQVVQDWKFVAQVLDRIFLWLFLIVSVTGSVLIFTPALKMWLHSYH

α3β2‐nAChR = molecular target: T3, α3β2‐nAChR (Homo sapiens, UniProt P17787+P32297); format: cell-based
T3 construct: expressed in transfected cells; host or cells: Xenopus laevis oocytes, cRNA injection
T3 sequence (P17787 26-502): as the sequence (P17787 26-502) above
T3 sequence (P32297 32-505): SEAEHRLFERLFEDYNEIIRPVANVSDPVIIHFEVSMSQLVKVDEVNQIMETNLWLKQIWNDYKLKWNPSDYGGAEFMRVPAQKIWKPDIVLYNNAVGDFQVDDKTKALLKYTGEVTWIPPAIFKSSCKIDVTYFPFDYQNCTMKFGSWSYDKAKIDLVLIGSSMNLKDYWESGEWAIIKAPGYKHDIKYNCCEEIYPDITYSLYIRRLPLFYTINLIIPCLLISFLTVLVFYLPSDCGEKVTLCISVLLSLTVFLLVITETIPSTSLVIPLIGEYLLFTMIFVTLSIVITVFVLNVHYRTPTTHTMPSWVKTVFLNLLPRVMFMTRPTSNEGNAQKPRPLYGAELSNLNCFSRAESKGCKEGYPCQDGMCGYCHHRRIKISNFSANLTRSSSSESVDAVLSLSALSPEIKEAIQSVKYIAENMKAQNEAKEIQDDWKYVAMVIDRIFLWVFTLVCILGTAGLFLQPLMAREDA

human α7‐only‐nAChR = molecular target: T4, human α7‐only‐nAChR (Homo sapiens, UniProt P36544); experiment: cell-based; conditions: SEM; for koff: read-out: k off α7‐only; for kon: read-out: k on α7‐only
T4 construct: expressed in transfected cells; host or cells: Xenopus laevis oocytes, cRNA injection
T4 sequence (P36544 23-502 limits assumed): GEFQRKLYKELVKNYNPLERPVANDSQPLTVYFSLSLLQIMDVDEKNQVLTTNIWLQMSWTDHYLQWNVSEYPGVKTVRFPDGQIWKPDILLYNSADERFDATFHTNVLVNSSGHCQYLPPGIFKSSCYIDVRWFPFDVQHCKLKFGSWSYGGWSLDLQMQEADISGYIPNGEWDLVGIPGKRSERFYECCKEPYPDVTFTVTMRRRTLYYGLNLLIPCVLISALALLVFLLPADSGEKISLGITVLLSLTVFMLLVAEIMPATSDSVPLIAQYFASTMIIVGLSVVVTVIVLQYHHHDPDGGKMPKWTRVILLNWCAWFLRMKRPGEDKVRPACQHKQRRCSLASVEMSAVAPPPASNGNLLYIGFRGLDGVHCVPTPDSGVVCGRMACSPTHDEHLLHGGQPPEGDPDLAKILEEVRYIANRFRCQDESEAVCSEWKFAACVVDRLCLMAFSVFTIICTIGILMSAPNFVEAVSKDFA

[1] = molecular target: T5, Outer pocket mutant α7β2‐nAChR (β2[K79T,F119Q] at both α7(+)/(−)β2 subunit interfaces) (Homo sapiens, UniProt P17787+P36544, F144Q/K104T); experiment: cell-based; conditions: SEM; for koff: read-out: k off, “Outer pocket” α7β2‐nAChR; for kon: read-out: k on, “Outer pocket” α7β2‐nAChR
T5 construct: expressed in transfected cells; host or cells: Xenopus laevis oocytes, cRNA injection
T5 sequence (P17787 26-502 K104T/F144Q): as the sequence (P17787 26-502) above, with K79T, F119Q counted along it
T5 sequence (P36544 23-502): as the sequence (P36544 23-502 limits assumed) above

[2] = molecular target: T6, Inner pocket mutant α7β2‐nAChR (β2[S108T, V111L,W120Y] at both α7(+)/(−)β2 subunit interfaces) (Homo sapiens, UniProt P17787+P36544, S133T/V136L/W145Y); experiment: cell-based; conditions: SEM; for koff: read-out: k off, “Inner pocket” α7β2‐nAChR; for kon: read-out: k on, “Inner pocket” α7β2‐nAChR
T6 construct: expressed in transfected cells; host or cells: Xenopus laevis oocytes, cRNA injection
T6 sequence (P17787 26-502 S133T/V136L/W145Y): as the sequence (P17787 26-502) above, with S108T, V111L, W120Y counted along it
T6 sequence (P36544 23-502): as the sequence (P36544 23-502 limits assumed) above

α9α10‐nAChR = molecular target: T7, α9α10‐nAChR (Homo sapiens, UniProt Q9GZZ6+Q9UGM1); experiment: cell-based
T7 construct: expressed in transfected cells; host or cells: Xenopus laevis oocytes, cRNA injection
T7 sequence (Q9UGM1 26-479 limits assumed): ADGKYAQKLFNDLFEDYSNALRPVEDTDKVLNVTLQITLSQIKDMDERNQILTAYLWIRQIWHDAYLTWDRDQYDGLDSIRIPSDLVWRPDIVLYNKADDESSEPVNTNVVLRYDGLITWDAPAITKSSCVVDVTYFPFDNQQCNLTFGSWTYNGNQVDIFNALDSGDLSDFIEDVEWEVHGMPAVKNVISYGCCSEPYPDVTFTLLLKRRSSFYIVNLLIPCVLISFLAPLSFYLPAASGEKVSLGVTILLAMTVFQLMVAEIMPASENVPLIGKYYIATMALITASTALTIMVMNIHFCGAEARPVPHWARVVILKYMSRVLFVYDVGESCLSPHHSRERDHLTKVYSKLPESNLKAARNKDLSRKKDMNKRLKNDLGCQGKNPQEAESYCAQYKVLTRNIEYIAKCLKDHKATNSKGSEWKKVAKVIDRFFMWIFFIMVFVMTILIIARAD
T7 sequence (Q9GZZ6 25-450): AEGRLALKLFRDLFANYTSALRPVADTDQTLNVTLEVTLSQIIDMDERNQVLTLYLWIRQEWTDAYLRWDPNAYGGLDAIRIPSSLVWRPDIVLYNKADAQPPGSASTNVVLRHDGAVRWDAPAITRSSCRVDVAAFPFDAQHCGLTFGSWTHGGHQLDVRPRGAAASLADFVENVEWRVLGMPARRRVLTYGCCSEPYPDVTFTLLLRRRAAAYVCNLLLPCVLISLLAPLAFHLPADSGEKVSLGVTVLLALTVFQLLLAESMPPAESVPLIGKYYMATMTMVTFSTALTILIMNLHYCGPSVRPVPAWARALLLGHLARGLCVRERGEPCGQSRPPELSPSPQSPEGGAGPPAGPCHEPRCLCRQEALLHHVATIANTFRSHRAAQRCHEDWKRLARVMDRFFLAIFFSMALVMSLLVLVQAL

α3β4‐nAChR = molecular target: T8, α3β4‐nAChR (Homo sapiens, UniProt P30926+P32297); format: cell-based
T8 construct: expressed in transfected cells; host or cells: Xenopus laevis oocytes, cRNA injection
T8 sequence (P30926 22-498): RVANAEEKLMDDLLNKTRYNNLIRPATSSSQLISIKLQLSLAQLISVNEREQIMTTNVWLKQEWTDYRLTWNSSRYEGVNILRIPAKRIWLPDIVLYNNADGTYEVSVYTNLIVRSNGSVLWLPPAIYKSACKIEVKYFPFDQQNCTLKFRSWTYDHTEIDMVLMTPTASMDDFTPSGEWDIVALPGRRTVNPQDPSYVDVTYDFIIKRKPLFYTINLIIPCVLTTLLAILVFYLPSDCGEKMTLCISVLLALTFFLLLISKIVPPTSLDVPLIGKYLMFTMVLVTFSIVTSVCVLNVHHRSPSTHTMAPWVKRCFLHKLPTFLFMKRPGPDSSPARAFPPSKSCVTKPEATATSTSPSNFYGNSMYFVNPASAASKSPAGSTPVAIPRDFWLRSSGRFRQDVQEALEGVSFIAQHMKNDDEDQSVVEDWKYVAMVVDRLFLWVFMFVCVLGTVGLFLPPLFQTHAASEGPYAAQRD
T8 sequence (P32297 32-505): as the sequence (P32297 32-505) above

[3] = molecular target: T9, Outer pocket mutant α7β2‐nAChR (β2[K79T,F119Q]) (Homo sapiens, UniProt P17787+P36544, F144Q/K104T); experiment: ACh concentration‐response curve, TEVC, outer pocket α7β2‐nAChR; format: cell-based; conditions: mean ± SEM of 15–19 oocytes
T9 construct: expressed in transfected cells; host or cells: Xenopus laevis oocytes, cRNA injection
T9 sequence (P36544 23-502): as the sequence (P36544 23-502 limits assumed) above
T9 sequence (P17787 26-502 K104T/F144Q): as the sequence (P17787 26-502) above, with K79T, F119Q counted along it

[4] = molecular target: T10, Inner pocket mutant α7β2‐nAChR (β2[S108T, V111L,W120Y]) (Homo sapiens, UniProt P17787+P36544, S133T/V136L/W145Y); experiment: ACh concentration‐response curve, TEVC, inner pocket α7β2‐nAChR; format: cell-based; conditions: mean ± SEM of 15–19 oocytes
T10 construct: expressed in transfected cells; host or cells: Xenopus laevis oocytes, cRNA injection
T10 sequence (P36544 23-502): as the sequence (P36544 23-502 limits assumed) above
T10 sequence (P17787 26-502 S133T/V136L/W145Y): as the sequence (P17787 26-502) above, with S108T, V111L, W120Y counted along it

[5] = read-out: k off, Unaltered α7β2‐nAChR, SEM
[6] = read-out: k on, Unaltered α7β2‐nAChR, SEM
[7] = ACh 10 μM – 10 mM, half‐log steps, 3 s, 60 s apart

T1 sequence (P36544 23-502 limits assumed): as the sequence (P36544 23-502 limits assumed) above
T1 sequence (P17787 26-502 limits assumed): as the sequence (P17787 26-502) above

| SMILES | Kd (human α7β2‐nAChR; K d α7β2, SEM) [nM] | koff (human α7β2‐nAChR; read-out: k off α7β2, SEM) [s⁻¹] | kon (human α7β2‐nAChR; read-out: k on α7β2, SEM) [M⁻¹ s⁻¹] | Kd (human α7‐only‐nAChR) [nM] | koff (human α7‐only‐nAChR) [s⁻¹] | kon (human α7‐only‐nAChR) [M⁻¹ s⁻¹] | further results |
| --- | --- | --- | --- | --- | --- | --- | --- |
| CC(C)C[C@@H]1NC(=O)[C@H](Cc2ccccc2)NC(=O)[C@@H]2CSSC[C@H](NC(=O)CN)C(=O)N[C@@H](CSSC[C@@H](C(N)=O)NC(=O)[C@H](CC(=O)O)NC(=O)[C@H](CC(=O)O)NC(=O)[C@@H]3CCCN3C(=O)[C@H](CC(N)=O)NC(=O)[C@H](CC(N)=O)NC1=O)C(=O)N[C@@H](CO)C(=O)N[C@@H](Cc1c[nH]cn1)C(=O)N1CCC[C@H]1C(=O)N1CCC[C@H]1C(=O)N2 [[Y15D]] | 9.9 ± 2.1 | 0.000298 | 43300 | 27 ± 3 | 0.00112 | 54800 | block of ACh‐induced function, α6/3β2β3‐nAChR (α6/3β2β3‐nAChR): ≈ 35%; block of ACh‐induced function, α3β2‐nAChR (α3β2‐nAChR): ≈ 50% |
| CC(C)C[C@@H]1NC(=O)[C@H](Cc2ccccc2)NC(=O)[C@@H]2CSSC[C@H](NC(=O)CN)C(=O)N[C@@H](CSSC[C@@H](C(N)=O)NC(=O)[C@H](Cc3ccc(O)cc3)NC(=O)[C@H](CC(=O)O)NC(=O)[C@@H]3CCCN3C(=O)[C@H](CC(N)=O)NC(=O)[C@H](CC(N)=O)NC1=O)C(=O)N[C@@H](CCCNC(=N)N)C(=O)N[C@@H](Cc1c[nH]cn1)C(=O)N1CCC[C@H]1C(=O)N1CCC[C@H]1C(=O)N2 [[S4R]] | 0.83 ± 0.05 | 9.33e-05 | 112000 | 15 ± 6 | 0.000597 | 56700 | Kd (human α7β2‐nAChR; K d, Unaltered α7β2‐nAChR, SEM): 1.9 ± 0.21 nM; koff (human α7β2‐nAChR; [5]): 0.000124 s⁻¹; kon (human α7β2‐nAChR; [6]): 67500 M⁻¹ s⁻¹; Kd [1]: 6.74 ± 2.67 nM; koff [1]: 0.000255 s⁻¹; kon [1]: 64300 M⁻¹ s⁻¹; Kd [2]: 5.31 ± 1.04 nM; koff [2]: 0.000232 s⁻¹; kon [2]: 45500 M⁻¹ s⁻¹ |
| CC(C)C[C@@H]1NC(=O)[C@H](Cc2ccccc2)NC(=O)[C@@H]2CSSC[C@H](NC(=O)CN)C(=O)N[C@@H](CSSC[C@@H](C(N)=O)NC(=O)[C@H](Cc3ccc(O)cc3)NC(=O)[C@H](CCC(=O)O)NC(=O)[C@@H]3CCCN3C(=O)[C@H](CC(N)=O)NC(=O)[C@H](CC(N)=O)NC1=O)C(=O)N[C@@H](CO)C(=O)N[C@@H](Cc1c[nH]cn1)C(=O)N1CCC[C@H]1C(=O)N1CCC[C@H]1C(=O)N2 [[D14E]] | 1.4 ± 0.3 | 6e-05 | 49500 | 2 ± 0.6 | 0.000111 | 57500 | – |
| NCC(=O)N[C@H]1CSSC[C@@H]2NC(=O)[C@@H]3CCCN3C(=O)[C@@H]3CCCN3C(=O)[C@H](Cc3c[nH]cn3)NC(=O)[C@H](CO)NC(=O)[C@H](CSSC[C@@H](C(N)=O)NC(=O)[C@H](Cc3ccc(O)cc3)NC(=O)[C@H](CC(=O)O)NC(=O)[C@@H]3CCCN3C(=O)[C@H](CC(N)=O)NC(=O)[C@H](CC(N)=O)NC(=O)[C@H](Cc3ccc(O)cc3)NC(=O)[C@H](Cc3ccccc3)NC2=O)NC1=O [[L10Y]] | 12 ± 3 | 0.000462 | 50200 | 671 ± 136 | 0.0044 | 6670 | Kd (human α7β2‐nAChR; K d α7β2): 1 to 2 nM; Kd (human α7β2‐nAChR; K d, Unaltered α7β2‐nAChR, SEM): 20 ± 4 nM; koff (human α7β2‐nAChR; [5]): 0.000508 s⁻¹; kon (human α7β2‐nAChR; [6]): 30700 M⁻¹ s⁻¹; Kd [1]: 28 ± 4 nM; koff [1]: 0.00064 s⁻¹; kon [1]: 24000 M⁻¹ s⁻¹; IC50 (α9α10‐nAChR): > 300 nM; Kd [2]: 24 ± 3 nM; koff [2]: 0.000537 s⁻¹; kon [2]: 21700 M⁻¹ s⁻¹ |
| CC(C)C[C@@H]1NC(=O)[C@H](CC(C)C)NC(=O)[C@@H]2CSSC[C@H](NC(=O)CN)C(=O)N[C@@H](CSSC[C@@H](C(N)=O)NC(=O)[C@H](Cc3ccc(O)cc3)NC(=O)[C@H](CC(=O)O)NC(=O)[C@@H]3CCCN3C(=O)[C@H](CC(N)=O)NC(=O)[C@H](CC(N)=O)NC1=O)C(=O)N[C@@H](CO)C(=O)N[C@@H](Cc1c[nH]cn1)C(=O)N1CCC[C@H]1C(=O)N1CCC[C@H]1C(=O)N2 [[F9L]] | 15 ± 2 | 0.000292 | 20500 | 20 ± 3 | 0.000637 | 32800 | block of ACh‐induced function, α3β4‐nAChR (α3β4‐nAChR): > 90% |
| CC(C)C[C@@H]1NC(=O)[C@H](Cc2ccccc2)NC(=O)[C@@H]2CSSC[C@H](NC(=O)CN)C(=O)N[C@@H](CSSC[C@@H](C(N)=O)NC(=O)[C@H](Cc3ccc(O)cc3)NC(=O)[C@H](CC(=O)O)NC(=O)[C@@H]3CCCN3C(=O)[C@H](Cc3c[nH]cn3)NC(=O)[C@H](CC(N)=O)NC1=O)C(=O)N[C@@H](CO)C(=O)N[C@@H](Cc1c[nH]cn1)C(=O)N1CCC[C@H]1C(=O)N1CCC[C@H]1C(=O)N2 [[N12H]] | 13 ± 2 | 0.000308 | 24500 | 81 ± 19 | 0.0011 | 18300 | – |
| CC(=O)OCC[N+](C)(C)C [ACh, acetylcholine] | – | – | – | – | – | – | Imax, maximum function induced by ACh, outer pocket α7β2‐nAChR [3, 7]: 1401 ± 137 nA; hillslope (nH), outer pocket α7β2‐nAChR ([3]; logistic fit per oocyte): 1.17 ± 0.12; Imax, maximum function induced by ACh, inner pocket α7β2‐nAChR [4, 7]: 1539 ± 193 nA; hillslope (nH), inner pocket α7β2‐nAChR ([4]; logistic fit per oocyte): 0.93 ± 0.06 |
